Among the data in PubChem BioAssay AID248 (DTP/NCI, 2004) are T/C values, retold here.

The experiment relates to L1210 leukemia ip in BDF1 mice, survival T/C. Description: NCI In Vivo Anticancer Drug Screen. Data for tumor model L1210 Leukemia (intraperitoneal) in B6D2F1 (BDF1) mice. To be noted: endpoint: mean survival time, higher = longer survival. The procedure, abridged:
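Read-out is survival time, reported as the treated-group measurement over the vehicle-control measurement.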

[1] abbreviates: dose: 50.0 mg/kg/injection, schedule: Q01DX009 (ip), vehicle: Klucel (hydroxypropylcellulose) (HPC).
Where [2] appears, read: dose: 100.0 mg/kg/injection, schedule: Q01DX001 (ip), vehicle: Klucel (hydroxypropylcellulose) (HPC).
[3] abbreviates: dose: 100.0 mg/kg/injection, schedule: Q01DX009 (ip), vehicle: Klucel (hydroxypropylcellulose) (HPC).
Setting [4] is: dose: 200.0 mg/kg/injection, schedule: Q01DX001 (ip), vehicle: Klucel (hydroxypropylcellulose) (HPC).
The mark [5] stands for this setting: dose: 200.0 mg/kg/injection, schedule: Q01DX009 (ip), vehicle: Klucel (hydroxypropylcellulose) (HPC).
Where [6] appears, read: dose: 400.0 mg/kg/injection, schedule: Q01DX001 (ip), vehicle: Klucel (hydroxypropylcellulose) (HPC).
Setting [7] is: dose: 50.0 mg/kg/injection, schedule: Q01DX009 (ip), vehicle: saline.
The mark [8] stands for this setting: dose: 100.0 mg/kg/injection, schedule: Q04DX003 (ip), vehicle: Klucel (hydroxypropylcellulose) (HPC).
Where [9] appears, read: dose: 200.0 mg/kg/injection, schedule: Q04DX003 (ip), vehicle: Klucel (hydroxypropylcellulose) (HPC).
Setting [10] is: dose: 400.0 mg/kg/injection, schedule: Q04DX003 (ip), vehicle: Klucel (hydroxypropylcellulose) (HPC).
[11] abbreviates: dose: 50.0 mg/kg/injection, schedule: Q04DX003 (ip), vehicle: Klucel (hydroxypropylcellulose) (HPC).
Setting [12] is: dose: 25.0 mg/kg/injection, schedule: Q04DX003 (ip), vehicle: saline.
[13] abbreviates: dose: 50.0 mg/kg/injection, schedule: Q04DX003 (ip), vehicle: saline.
[14] abbreviates: dose: 100.0 mg/kg/injection, schedule: Q01DX001 (ip), vehicle: saline.
Where [15] appears, read: dose: 200.0 mg/kg/injection, schedule: Q01DX001 (ip), vehicle: saline.
The mark [16] stands for this setting: dose: 50.0 mg/kg/injection, schedule: Q01DX001 (ip), vehicle: saline.
Setting [17] is: dose: 400.0 mg/kg/injection, schedule: Q01DX001 (ip), vehicle: saline.
The mark [18] stands for this setting: dose: 400.0 mg/kg/injection, schedule: Q01DX009 (ip), vehicle: Klucel (hydroxypropylcellulose) (HPC).

SMILES strings stand for the structures. Inconclusive results and toxic doses are left out.

In the case of `C/C=C1/CN2C3CC1C1(C(=O)OC)C2CC2(c4ccccc4N(C)C32)C1O` (stereo not given), the T/C under setting [1] is 94 % of control; the T/C under setting [2] is 105 % of control; the T/C under setting [3] is 98 % of control; the T/C under setting [4] is 97 % of control; the T/C under setting [5] is 96 % of control; the T/C under setting [6] is 93 % of control.

With `NC(CSC(c1ccccc1)(c1ccccc1)c1ccc(F)cc1)C(=O)O` (stereo not given), the T/C (dose: 5.5 mg/kg/injection, schedule: Q01DX009 (ip), vehicle: saline) is 117 % of control; the T/C (dose: 8.2 mg/kg/injection, schedule: Q01DX009 (ip), vehicle: saline) was 117 % of control; the T/C under setting [7] was 161 % of control; the T/C (dose: 100.0 mg/kg/injection, schedule: Q01DX009 (ip), vehicle: other) is 100 % of control.

For `CCCC(=O)OCC1CO1` (stereo not given), the T/C reads like this: under setting [2], 100 % of control; under setting [8], 104 % of control; under setting [4], 104 % of control; under setting [9], 98 % of control; under setting [6], 102 % of control; under setting [10], 106 % of control.

For the compound `O=C(COc1ccc(Cl)cc1)Nc1cccnc1`, the T/C (dose: 25.0 mg/kg/injection, schedule: Q01DX009 (ip), vehicle: Klucel (hydroxypropylcellulose) (HPC)) was 100 % of control; the T/C (dose: 25.0 mg/kg/injection, schedule: Q04DX003 (ip), vehicle: Klucel (hydroxypropylcellulose) (HPC)) is 100 % of control; the T/C under setting [1] was 92 % of control; the T/C under setting [11] was 94 % of control; the T/C under setting [8] was 103 % of control.

For the compound `O=C(CCN1CC1)OCC1CC1`, the T/C is, setting by setting: (dose: 2.5 mg/kg/injection, schedule: Q01DX009 (ip), vehicle: Klucel (hydroxypropylcellulose) (HPC)) 103 % of control; (dose: 5.0 mg/kg/injection, schedule: Q01DX009 (ip), vehicle: Klucel (hydroxypropylcellulose) (HPC)) 97 % of control; (dose: 10.0 mg/kg/injection, schedule: Q01DX009 (ip), vehicle: Klucel (hydroxypropylcellulose) (HPC)) 105 % of control; (dose: 20.0 mg/kg/injection, schedule: Q01DX009 (ip), vehicle: Klucel (hydroxypropylcellulose) (HPC)) 114 % of control; (dose: 20.0 mg/kg/injection, schedule: Q04DX003 (ip), vehicle: Klucel (hydroxypropylcellulose) (HPC)) 98 % of control; (dose: 40.0 mg/kg/injection, schedule: Q04DX003 (ip), vehicle: Klucel (hydroxypropylcellulose) (HPC)) 101 % of control. Where the note is “dose: 80.0 mg/kg/injection, schedule: Q04DX003 (ip), vehicle: Klucel (hydroxypropylcellulose) (HPC)”, the T/C is 97 % of control.

With `C[N+](C)(C)CCC(=O)c1ccccc1`, the T/C runs as follows: (dose: 12.5 mg/kg/injection, schedule: Q04DX003 (ip), vehicle: saline) 97 % of control; under setting [12], 100 % of control; under setting [13], 94 % of control; (dose: 75.0 mg/kg/injection, schedule: Q01DX001 (ip), vehicle: saline) 102 % of control.

As for `O=C(/C=C\c1ccc(C(=O)Nc2ccc(C3=NCCCN3)cc2)cc1)Nc1ccc(C2=NCCCN2)cc1`, the T/C runs as follows: (dose: 0.25 mg/kg/injection, schedule: Q01DX Z (ip), vehicle: water) 121 % of control; (dose: 0.75 mg/kg/injection, schedule: Q01DX Z (ip), vehicle: water) 183 % of control; (dose: 1.0 mg/kg/injection, schedule: Q01DX Z (ip), vehicle: water) 220 % of control; (dose: 1.25 mg/kg/injection, schedule: Q01DX Z (ip), vehicle: water) 203 % of control; (dose: 10.5 mg/kg/injection, schedule: Q01DX Z (ip), vehicle: water) 123 % of control; (dose: 50.0 mg/kg/injection, schedule: Q01DX Z (oral), vehicle: water) 101 % of control. Also, the T/C by setting is: (dose: 100.0 mg/kg/injection, schedule: Q01DX Z (oral), vehicle: water) 93 % of control; (dose: 200.0 mg/kg/injection, schedule: Q01DX Z (oral), vehicle: water) 114 % of control.

For the compound `CC1CNC(=S)S1` (stereo not given), the T/C is 105 % of control under setting [3]; 107 % of control under setting [8]; 100 % of control under setting [5]; 102 % of control under setting [9]; 102 % of control under setting [10].

For `O=[N+]([O-])c1ccc(OS(=O)(=O)CS(=O)(=O)Oc2ccc([N+](=O)[O-])cc2)cc1`, the T/C is 109 % of control under setting [14] and 114 % of control under setting [15].

Turning to `CCCCCCCCCC(CCCCCCCC(=O)O)NC(C)=O` (stereo not given), the T/C is 97 % of control under setting [16], 94 % of control under setting [14], 94 % of control under setting [15] and 94 % of control under setting [17].

With `C=Cc1ccc(N)cc1`, the T/C (dose: 50.0 mg/kg/injection, schedule: Q01DX009 (ip), vehicle: saline with Tween-80) is 90 % of control; the T/C (dose: 100.0 mg/kg/injection, schedule: Q04DX003 (ip), vehicle: saline with Tween-80) was 87 % of control; the T/C (dose: 200.0 mg/kg/injection, schedule: Q01DX009 (ip), vehicle: saline with Tween-80) is 93 % of control; the T/C (dose: 200.0 mg/kg/injection, schedule: Q04DX003 (ip), vehicle: saline with Tween-80) is 90 % of control.

For the compound `C=C(Cl)CO`, the T/C is 118 % of control under setting [12] and 89 % of control under setting [13].

For the compound `Cc1cc(N2CCC(N3CCCC3)CC2)nc(/N=C(\N)Nc2ccc(Cl)c(Cl)c2)n1`, the T/C is, setting by setting: (dose: 12.0 mg/kg/injection, schedule: Q01DX009 (ip), vehicle: saline) 97 % of control; (dose: 25.0 mg/kg/injection, schedule: Q01DX009 (ip), vehicle: saline) 106 % of control; under setting [7], 98 % of control.

Regarding `Cc1[nH]c2c(O)ccc(O)c2c1C`, the T/C reads like this: under setting [14], 106 % of control; under setting [15], 97 % of control; under setting [17], 106 % of control.

`CNC(=O)NC(C)(C)CCCCC(C)(C)NC(=O)NC`: the T/C reads like this: under setting [16], 104 % of control; under setting [14], 102 % of control; under setting [15], 93 % of control; under setting [17], 96 % of control.

Take `N#CCc1cnc2ccccc2n1`: the T/C runs as follows: (dose: 6.25 mg/kg/injection, schedule: Q01DX009 (ip), vehicle: saline with Tween-80) 96 % of control; (dose: 12.5 mg/kg/injection, schedule: Q01DX009 (ip), vehicle: saline with Tween-80) 98 % of control; (dose: 12.5 mg/kg/injection, schedule: Q04DX003 (ip), vehicle: saline with Tween-80) 94 % of control; (dose: 25.0 mg/kg/injection, schedule: Q01DX009 (ip), vehicle: saline with Tween-80) 101 % of control; (dose: 25.0 mg/kg/injection, schedule: Q04DX003 (ip), vehicle: saline with Tween-80) 96 % of control.

On to `Cc1cccc(Cl)c1NC(=O)Nc1c(C)n(C)n(-c2ccccc2)c1=O`, for which the T/C runs as follows: under setting [3], 100 % of control; under setting [5], 102 % of control; under setting [18], 100 % of control.

Consider `O=P(CCl)(NC12CC3CC(CC(C3)C1)C2)N1CC1` (stereo not given), for which the T/C by setting is: under setting [11], 100 % of control; under setting [3], 97 % of control; under setting [8], 95 % of control; under setting [5], 95 % of control; under setting [9], 103 % of control; under setting [18], 103 % of control. In addition, the T/C under setting [10] is 97 % of control.

Consider `COc1ccc(C(=O)N/N=C/c2ccc(NC(C)=O)cc2)cc1`, for which the T/C (dose: 100.0 mg/kg/injection, schedule: Q04DX002 (ip), vehicle: Klucel (hydroxypropylcellulose) (HPC)) is 100 % of control; the T/C (dose: 200.0 mg/kg/injection, schedule: Q04DX002 (ip), vehicle: Klucel (hydroxypropylcellulose) (HPC)) is 96 % of control; the T/C (dose: 400.0 mg/kg/injection, schedule: Q04DX002 (ip), vehicle: Klucel (hydroxypropylcellulose) (HPC)) is 115 % of control.
